A word on the IC50: it is the concentration at which inhibition is half-maximal. One may read the Ki as a dissociation constant, usually derived from enzyme kinetics or from competition with a known ligand.

From patent publication US20060241099A1 (Pliva-Istrazivacki Institut d.o.o., priority 2003, published 2006) come the findings set out here.

In one assay the target is T1, 5-HT2A receptor (Homo sapiens, UniProt P28223).
T1 construct: expressed in transfected cells; host or cells: CHO-K1 (or human cortex tissue)
Kind of assay: radioligand binding assay for 5-HT2A receptor ([3H]-ketanserin). As to conditions: human cortex or recombinant 5-HT2A receptor expressed in CHO-K1 cells; for IC50: read-out: binding affinity to 5-HT2A serotonin receptor expressed as IC50 value; for Ki: read-out: binding affinity to 5-HT2A serotonin receptor, Ki value. Here is the method:
(§1) The effect of the compounds of the present invention on the neurochemical steady state was determined by in vitro investigations such as a radionuclide-marked radioligand binding assay for 5-HT2A (Bonhaus D. W. Br. J. Pharmacol. 1995, 115:622; Saucier C. J. Neurochem. 1997, 68:1998) and 5-HT2C receptors (Wolf W. A. J. Neurochem. 1997, 69:1449), in vitro binding assay for al receptor (Thomson W. and Donn R. Arthritis Res. 2002, 4: 302-306) and by in vivo investigations in a tail suspension test (Vogel H. G. and Vogel W. H. Drug Discovery and Evaluation Pharmacological Assays, Springer 1997, 304), in amphethamine-induced hyperlocomotion in mice (Millan M. J. et al, 1998 J Pharmacol. Exp. Ther. 287: 167-186) in a forced swim test in mice (Porsolt R. D. et al. Arch. Int. Pharmacodyn. 1977, 229:327-336), in meta-chlorophenyl piperazine (m-CPP) test on rats (Drug Dev. Res. 1989, 18:119-144) and in apomorphine, tryptamine, norepinephrine (ATN) test in rats (Arch. Int. Pharmacodyn. 1977, 227:238-253).
(§2) A small concentration of a radioligand having a great affinity for binding to a receptor was incubated with a tissue sample enriched with a certain receptor (1-5 mg of tissue) in a buffered medium (0.2-5 μL). Recombinant human HT2A and HT2C receptors were expressed in CHO-K1 or COS-7 cells and were also used for competitive binding. During incubation the radioligand bound to the receptor. When a binding balance was achieved, the receptors to which the radioligand was bound were separated from those to which said ligand was not bound, and the radioactivity of the receptor/radioligand complex was measured. The interaction of the tested compounds with receptors was tested in competitive binding experiments. Various concentrations of tested compounds were added to the incubation mixture containing a prepared tissue enriched with corresponding receptors and the radioligand. The radioligand binding was inhibited by the test compounds proportionally to the affinity of a certain compound for the receptor and to the concentration of the compound.
The radioligand used for the determination of binding to 5-HT2A receptor was [^3H]-ketanserin and the tissue used was human cortex or recombinant 5-HT2A receptor expressed in CHO-K1 cells.

The target in a further assay is T2, 5-HT2C receptor (Homo sapiens, UniProt P28335).
T2 construct: expressed in transfected cells; host or cells: CHO-K1 (or choroid plexus tissue)
T2 sequence (P28335 33-458): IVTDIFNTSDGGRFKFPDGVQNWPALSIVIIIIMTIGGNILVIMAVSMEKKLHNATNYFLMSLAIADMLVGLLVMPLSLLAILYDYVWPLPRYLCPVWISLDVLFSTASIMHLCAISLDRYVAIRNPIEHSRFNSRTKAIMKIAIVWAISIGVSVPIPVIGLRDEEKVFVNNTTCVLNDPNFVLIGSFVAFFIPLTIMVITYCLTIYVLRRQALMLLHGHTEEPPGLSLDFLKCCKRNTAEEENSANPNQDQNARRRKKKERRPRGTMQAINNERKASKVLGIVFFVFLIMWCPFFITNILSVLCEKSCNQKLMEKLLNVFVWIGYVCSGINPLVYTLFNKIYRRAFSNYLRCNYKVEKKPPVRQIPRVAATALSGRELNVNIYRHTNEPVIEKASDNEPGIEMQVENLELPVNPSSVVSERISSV
Kind of assay: radioligand binding assay for 5-HT2C receptor ([3H]-mesulergine). Conditions: choroid plexus or recombinant 5-HT2C receptor expressed in CHO-K1 cells; for IC50: read-out: binding affinity to 5-HT2C serotonin receptor expressed as IC50 value; for Ki: read-out: binding affinity to 5-HT2C serotonin receptor, Ki value. Here is the method: as §1, §2
The radioligand used for the determination of binding to 5-HT2C receptor was [^3H]-mesulergine and the tissue used was choroid plexus or recombinant 5-HT2C receptor expressed in CHO-K1 cells.

For a further assay, the target named is T3, σ1 receptor (Homo sapiens, UniProt Q99720).
T3 construct: endogenous in cells; host or cells: Jurkat cell membranes
The assay can be described thus: in vitro binding affinity to σ1 receptor, Jurkat cell membranes, [3H]haloperidol. Conditions: for IC50: read-out: binding affinity to σ1 receptor expressed as IC50 value. Here is the method:
as §1
Jurkat cell were grown in medium, RPMI supplemented with 10% fetal bovine serum, 100 U/ml penicillin and 100 μg/ml streptomycin, collected and their suspension homogenized. After centrifugation, the membrane fraction was separated, resuspended in phosphate buffer (pH=7.5) and stored in small aliquots in liquid nitrogen until use. Binding of different radiolabeled ligands to Jurkat cell membranes was measured as described previously (Ramamoorthy et al., 1995). To characterize the σ binding sites in the Jurkat cell line, [^3H]haloperidol was first used as the ligand. Haloperidol is a high affinity ligand to both type 1 and type 2 σ-receptors. The binding assays were done using Jurkat cell membranes in the presence of [^3H]haloperidol ([…]) alone to determine the total binding, and in the presence of [^3H]haloperidol (10 nM) and unlabeled haloperidol (10 μM) to determine the nonspecific binding. Membranes were incubated with ligands in phosphate buffer for 3 hours at room temperature. After the filter had been washed, radioactivity associated with the filter was determined by liquid scintillation spectrometry.

In another assay the test system is mice. Kind of assay: amphetamine-induced hyperlocomotion in mice. Format: in vivo. As to conditions: male Swiss OFA mice, per os in saline, test doses of 1 mg/kg and 0,1 mg/kg, dexamphetamine sulphate 2 mg/kg i.p. Here is the method:
Male Swiss OFA mice of a weight 30-35 g were treated with either vehicle (saline) or test compounds 30 minutes prior to hyperlocomotion induction. Dexamphetamine sulphate was administered intraperitoneally at 2 mg/kg. Thirty minutes later, animals were placed in a wooden box 80×80 cm^2 in a room with low light intensity (100 lux) for locomotor activity recording. Locomotor activity was determined during a 30 min period using a video image analyzer. Total duration of movement, occurence of movement and total distance travelled were measured. Haloperidol was tested at the dose of 0,25 mg/kg (prepared in 0.5% methylcellulose) and served as reference substance.
Compounds were considered as active if in a dose of 10 mg/kg reduced amphetamine-induced hyperlocomotion in experimental animals for 30% and more when compared to vehicle treated control group.

T3 sequence (Q99720 whole entry): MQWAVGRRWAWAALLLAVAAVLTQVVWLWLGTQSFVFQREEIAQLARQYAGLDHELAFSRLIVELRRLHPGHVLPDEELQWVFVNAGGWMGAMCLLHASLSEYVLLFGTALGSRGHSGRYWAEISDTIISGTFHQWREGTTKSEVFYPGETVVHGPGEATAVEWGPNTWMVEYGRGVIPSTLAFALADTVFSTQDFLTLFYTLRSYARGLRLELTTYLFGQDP
T1 sequence (P28223 whole entry): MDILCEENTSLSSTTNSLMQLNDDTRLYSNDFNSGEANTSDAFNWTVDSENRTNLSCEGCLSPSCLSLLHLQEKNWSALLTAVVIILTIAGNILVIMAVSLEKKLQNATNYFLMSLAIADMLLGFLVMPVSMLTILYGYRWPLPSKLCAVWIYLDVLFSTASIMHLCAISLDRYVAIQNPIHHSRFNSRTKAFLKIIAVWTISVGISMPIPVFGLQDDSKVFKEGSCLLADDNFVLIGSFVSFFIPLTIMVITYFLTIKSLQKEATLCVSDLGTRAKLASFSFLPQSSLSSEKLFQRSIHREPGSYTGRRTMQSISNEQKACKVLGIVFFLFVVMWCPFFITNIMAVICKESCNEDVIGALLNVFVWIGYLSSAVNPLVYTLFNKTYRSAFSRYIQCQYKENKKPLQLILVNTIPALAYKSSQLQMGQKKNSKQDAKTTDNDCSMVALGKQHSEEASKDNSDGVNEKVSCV

`NCCCOCc1scc2c1-c1cc(Cl)ccc1Oc1ccccc1-2`: at 5-HT2A receptor, the IC50 is less than 200 nM and the Ki was less than 100 nM. Besides, on 5-HT2C receptor, the half-maximal inhibitory concentration (IC50) is less than 200 nM and the Ki was less than 100 nM.

In the case of `NCCCOCc1scc2c1-c1ccccc1Oc1ccccc1-2` [3-(8-oxa-2-thia-dibenzo[e,h]azulen-1-ylmethoxy)-propylamine], the IC50 on 5-HT2A receptor and at 5-HT2C receptor was less than 200 nM each time. For the same molecule, the inhibitory constant (Ki) on 5-HT2A receptor and on 5-HT2C receptor was less than 100 nM throughout.

For `CN(C)CCOCc1scc2c1-c1ccccc1Sc1ccccc1-2` [[2-(2,8-dithia-dibenzo[e,h]azulen-1-ylmethoxy)-ethyl]-dimethyl-amine], the IC50 on 5-HT2A receptor, at 5-HT2C receptor and on σ1 receptor was less than 200 nM throughout. Also, the Ki on 5-HT2A receptor, on 5-HT2C receptor and at σ1 receptor was less than 100 nM throughout.

As to `CN(C)CCOCc1scc2c1-c1ccccc1Oc1ccc(Cl)cc1-2` [[2-(5-chloro-8-oxa-2-thia-dibenzo[e,h]azulen-1-ylmethoxy)-ethyl]-dimethyl-amine], the IC50 at 5-HT2A receptor, on 5-HT2C receptor and at σ1 receptor was less than 200 nM in each case. The Ki on 5-HT2A receptor, at 5-HT2C receptor and on σ1 receptor was less than 100 nM each time.

Turning to `CN(C)CCCOCc1scc2c1-c1ccccc1Sc1ccccc1-2` [[3-(2,8-dithia-dibenzo[e,h]azulen-1-ylmethoxy)-propyl]-dimethyl-amine], the IC50 at 5-HT2A receptor, at 5-HT2C receptor and at σ1 receptor was less than 200 nM throughout. The Ki on 5-HT2A receptor, on 5-HT2C receptor and at σ1 receptor was less than 100 nM each time.

For the molecule `CN(C)CCOCc1scc2c1-c1ccccc1Oc1ccccc1-2` [dimethyl-[2-(8-oxa-2-thia-dibenzo[e,h]azulen-1-ylmethoxy)-ethyl]-amine], the 50% inhibitory concentration (IC50) on 5-HT2A receptor, at 5-HT2C receptor and at σ1 receptor was less than 200 nM throughout. For the same molecule, the Ki on 5-HT2A receptor, on 5-HT2C receptor and at σ1 receptor was less than 100 nM each time.

As to `CN(C)CCCOCc1scc2c1-c1ccccc1Oc1ccccc1-2` [dimethyl-[3-(8-oxa-2-thia-dibenzo[e,h]azulen-1-ylmethoxy)-propyl]-amine], at 5-HT2A receptor, the IC50 is less than 200 nM and the inhibitory constant (Ki) was less than 100 nM. Also, on 5-HT2C receptor, the half-inhibitory concentration (IC50) is less than 200 nM and the Ki was less than 100 nM.

As to “[2-(2,8-dithia-dibenzo[e,h]azulen-1-ylmethoxy)-ethyl]-dimethyl-ammonium citrate”, in the assay on mice, the “inhibition of amphetamine-induced hyperlocomotion” value is listed as 40-60%.
